# Test results: paper PMC9241695, “Selective Metal Chelation by a Thiosemicarbazone Derivative Interferes with Mitochondrial Respiration and Ribosome Biogenesis in Candida albicans” (Microbiology Spectrum, 2022)
# Experiments:
# [1] = test system: mitochondrial respiratory chain complex III; experiment: Mitochondrial respiratory chain complex activity in isolated mitochondria; format: biochemical, Candida albicans; conditions: purified mitochondria, 0.125-1 μg/mL, 6 h
# Procedure: (§1) Mitochondrial isolation and detection of mitochondrial respiratory chain complex activity. Mitochondria were isolated from C. albicans spheroplasts as previously described (8). A dilution series of 19ak was added to the mitochondrial suspensions to obtain final concentrations of 0, 0.125, 0.25, 0.5, and 1 μg/mL and incubated for 6 h at 30°C. The activities of mitochondrial respiratory chain complexes I-IV were determined by using the Micro Mitochondrial Respiratory Chain Complex Activity Assay Kit (Solarbio, Beijing, China). The concentration of protein was determined using the BCA Protein Assay Kit (Beyotime, Haimen, China).
# (§2) Mitochondrial complex activity was expressed as nmol/min/mg protein. […]
# [2] = test system: mitochondrial respiratory chain complex I; experiment: as above; format: biochemical, Candida albicans
# Procedure: as §1, §2
# C. albicans SC5314 cells = experiment: Mitochondrial membrane potential by Rh123; format: cell-based, Candida albicans; conditions: 0.125-1 μg/mL, 30°C, 6 h
# Procedure: the fluorescent complex […] (CTF) is commonly used to indicate the intensity of microbial respiration. C. albicans SC5314 treated with 19ak was stained with 1 mM CTC for 30 min, followed by flow cytometry analysis of respiratory activity based on fluorescence intensity. Images of cells were obtained using a fluorescence microscope (IX71, Olympus, Tokyo, Japan). The Cell Counting Kit-8 (CCK-8) assay is used to measure the dehydrogenase activity in the mitochondria of C. albicans or mammalian cells. C. albicans SC5314 (5 × 10^6 cells/mL in RPMI1640 medium) were treated with different concentrations of 19ak in 96-well plates at 30°C for 12 h or 48 h. […] After an additional 2 h of incubation, OD450 in each well was detected with a microplate reader. […]
# Mitochondrial isolation and detection of mitochondrial respiratory chain complex activity. […] The activities of mitochondrial respiratory chain complexes I-IV were determined by using the Micro Mitochondrial Respiratory Chain Complex Activity Assay Kit (Solarbio, Beijing, China). The concentration of protein was determined using the BCA Protein Assay Kit (Beyotime, Haimen, China).
# as §2
# Measurement of intracellular ATP production. […] Cellular protein concentrations were determined using a BCA Protein Assay Kit (Beyotime, Haimen, China). […]
# SOD = SOD activity in treated cells; format: cell-based, Candida albicans; conditions: 0.5 μg/mL or above, 6 h
# Procedure: Determination of SOD activity. SOD activity was measured using the Superoxide Dismutase Activity Assay Kit (Njjcbio, Nanjing, China) following the manufacturer's instructions. An overnight culture of C. albicans SC5314 was adjusted to 1 × 10^7 cells/mL with RPMI1640 medium and treated with 19ak at a final concentration of 0, 0.125, 0.25, 0.5, or 1 μg/mL for 6 h. After collection by centrifugation, the cells were broken by glass beads in extraction buffer and centrifuged at 4°C. The absorbance of the supernatant of each sample was measured with a microplate reader at450 nm.
# Determination of catalase (CAT) activity. CAT activity was measured by using a Catalase Assay Kit (Solarbio, Beijing, China) following the manufacturer's instructions. An overnight culture of C. albicans SC5314 was adjusted to 1 × 10^6 cells/mL with RPMI1640 medium and treated as described above for SOD activity.
# The decomposition of H2O2 is directly accompanied by a decrease in absorbance at 240 nm, and the difference in absorbance per unit time (ΔA240) is a measure of […]
# Quantitative real-time polymerase chain reaction (qPCR) analysis. C. albicans SC5314 cells (1 × 10^6 cells/mL) were incubated with or without 19ak (0.5,2 μg/mL) in RPMI1640 medium for 6 h. Total RNA was extracted using the hot phenol method, and the RNA quality was analyzed using a spectrophotometer (Eppendorf, Hamburg, Germany). […]
structure (smiles),measurement,setting,value
C/C(=N\NC(=S)N(C)C)c1ccccn1 [Compound 19ak],Activity of mitochondrial respiratory chain complex III,[1],slightly inhibited
same,Reduction of NADH dehydrogenase activity with extra metal ions,"[2]; 100 μM metal ions, 0.125 or 1 μg/mL 19ak",partially restored
same,"Activity of mitochondrial respiratory chain complex I (CI, NADH dehydrogenase)","[2]; purified mitochondria, 0.125-1 μg/mL, 6 h",significantly inhibited
same,"Mitochondrial membrane potential (mtΔψ), Rh123",C. albicans SC5314 cells,decrease in mtΔψ
same,SOD activity,SOD,increased
